Laboratory results published in patent US20220002663A1, “SELECTIVE SALMONELLA OR E. COLI CULTIVATION METHOD, COMPOSITIONS AND USES” (SOLUS SCIENTIFIC SOLUTIONS LTD, priority 2018, published 2022).

Experiments:
Format in all cases: cell-based
Salmonella [1] = test: Recovery and detection of Salmonella from spices, herbs and flavourings, single step culture (FIGS. 9-13); settings: spices/flavourings from the allium family; FIG. 13
Description: This was at fractional inoculation level (2-8 cfu). Accordingly a method with the ‘Spice neutraliser’ supplement is capable of detecting Salmonella from spice/herb/flavouring samples, even when the Salmonella is present at fractional levels.
This was at a high inoculation level (40-92 cfu).
The data provided in FIGS. 9A and 9B are derived from samples that were inoculated with a relatively high level of Salmonella (FIG. 9A—77-114cfu; FIG. 9B—38 cfu).
FIG. 10 provides data derived from fractional inoculation levels (2-8 cfu). In this instance the cells are cultured in the 4PYcq/Cefsulodin/Novobiocin supplement at half the concentration of that used previously, i.e. at a working concentration of 2.5 mg/L 4PYcq, 4 mg/L Cefsulodin and 5 mg/L Novobiocin.

competing microflora = test: Suppression of competing microflora in cultures of sample types; settings: 5 mg/L; range of sample types, including dairy and probiotic foods
Salmonella [2] = test: Inclusivity: culture of pure Salmonella serovars in BPW with selective agent or supplement, ELISA detection (FIG. 4, FIG. 6); settings: 5 mg/L 4PYcq; 20 hour culture; same inoculums of pure Salmonella cultures
Description: FIG. 4 illustrates inclusivity study data where multiple Salmonella serovars were artificially inoculated into either Buffered Peptone Water (BPW) on its own, or BPW enriched with either a selective cefsulodin, novobiocin, brilliant green lyophilised supplement run in the absence or presence of an oatmeal food matrix; or a selective cefsulodin, novobiocin, 4PYcq lyophilised supplement run in the absence of an oatmeal food matrix.
FIG. 6 illustrates inclusivity study data where multiple Salmonella serovars were artificially inoculated into BPW enriched with a selective cefsulodin, novobiocin, 4PYcq lyophilised supplement at low levels.

Row | SMILES | recovery of Salmonella (Salmonella [1]) | suppression of competing microflora (competing microflora) | identification of Salmonella by ELISA after culture (Salmonella [2])
1 | O=S([O-])[O-].[K+].[K+] [potassium salt component, potassium sulphite] | sufficient for recovery of Salmonella |  | 
2 | CC(C)(C)c1cc(/C=N/N=C(\N)c2ccncc2)c(O)c(C(C)(C)C)c1 [4PYcq] |  | sufficient suppression of competing microflora | positive identification of the presence of Salmonella
